Measured values taken from PMC4657098, “A Review of the Updated Pharmacophore for the Alpha 5 GABA(A) Benzodiazepine Receptor Model” (International Journal of Medicinal Chemistry, 2015).
Where “and” joins values, the source holds several entries; their conditions need not be identical. Equal values may be shown once. Read-outs that look alike come from different tables or passages of the source.

Key:
Parameters in all cases: expressed in transfected cells
α1β3γ2 GABAA/BzR = α1β3γ2 GABAA/BzR (Homo sapiens, UniProt P14867+P18507); assay: Competition binding to HEK cell membranes, α1β3γ2
α2β3γ2 GABAA/BzR = α2β3γ2 GABAA/BzR (Homo sapiens, UniProt P18507+P47869); assay: Competition binding to HEK cell membranes, α2β3γ2
α3β3γ2 GABAA/BzR = α3β3γ2 GABAA/BzR (Homo sapiens, UniProt P18507+P34903); assay: Competition binding to HEK cell membranes, α3β3γ2
α5β3γ2 GABAA/BzR = α5β3γ2 GABAA/BzR (Homo sapiens, UniProt P18507+P31644); assay: Competition binding to HEK cell membranes, α5β3γ2
α6β3γ2 GABAA/BzR = α6β3γ2 GABAA/BzR (Homo sapiens, UniProt P18507+Q16445); assay: Competition binding to HEK cell membranes, α6β3γ2

Compound	Ki (α1β3γ2 GABAA/BzR; read-out: Ki α1) [nM]	Ki (α2β3γ2 GABAA/BzR; read-out: Ki α2) [nM]	Ki (α3β3γ2 GABAA/BzR; read-out: Ki α3) [nM]	Ki (α5β3γ2 GABAA/BzR; read-out: Ki α5) [nM]	Ki (α6β3γ2 GABAA/BzR; read-out: Ki α6) [nM]	Ki (α1β3γ2 GABAA/BzR; Ki α1)	Ki (α2β3γ2 GABAA/BzR; Ki α2) [nM]	Ki (α3β3γ2 GABAA/BzR; Ki α3) [nM]	Ki (α5β3γ2 GABAA/BzR; Ki α5) [nM]	Ki (α6β3γ2 GABAA/BzR; Ki α6)
CCC(C)OC(=O)c1cc2c(cn1)[nH]c1ccccc12 (stereo not shown) [CM-A64]	18	60	116	216	1000	–	–	–	–	–
C#Cc1ccc2c(c1)C(c1ccccc1)=NCc1c(C(=O)OCC(F)(F)F)ncn1-2 [DM-II-20]	54.3	27.1	35.7	15.3	5000	–	–	–	–	–
C#Cc1ccc2c(c1)C(=O)N1CCCC1c1c(C(=O)OC(C)(C)C)ncn1-2 (stereo not shown) [JYI-03]	185	107	–	0.954	3.34	–	–	–	–	–
O=C1C2C=Nc3ccccc3C2=NN1c1ccccc1 (stereo not shown) [QH-II-090 (CGS-8216), reference compound]	–	–	–	–	–	0.13 nM and 0.05 nM	0.08	0.12	0.25	46 nM and 17 nM
O=c1c2c[nH]c3ccccc3c-2nn1-c1ccccc1 [QH-II-090]	0.05	0.08	0.12	0.25	17	–	–	–	–	–
CC(C)(C)OC(=O)c1ncn2c1C1CCCN1C(=O)c1cc(Br)ccc1-2 (stereo not shown) [JYI-01]	59.2	–	96	10.6	2.88	–	–	–	–	–
O=C(O)c1ncn2c1CN=C(c1ccccc1F)c1cc(Br)ccc1-2 [JYI-47]	2.76	2.28	0.511	0.427	–	–	–	–	–	–
CC(C)(C)OC(=O)c1ncn2c1[C@@H]1CCCN1C(=O)c1cc(-c3ccco3)ccc1-2 [JYI-06]	16.5	5.48	5000	12.6	5000	–	–	–	–	–
O=C(OCC(F)(F)F)c1ncn2c1C1CCCN1C(=O)c1cc(-c3ccco3)ccc1-2 (stereo not shown) [JYI-13]	5000	63.7	–	16	8.38	–	–	–	–	–
CCOC(=O)c1ncn2c1CN=C(c1ccccc1F)c1cc(-c3ccco3)ccc1-2 [JYI-48]	75.6	90.7	12.8	31.3	–	–	–	–	–	–
CCOC(=O)c1ncc2[nH]c3ccc(OCc4cccc5ccccc45)cc3c2c1COC [EDC-II-044]	15.4	–	293	323	1000	–	–	–	–	–
CCCCc1cc2c(cn1)[nH]c1ccc(F)cc12 [CM-A58]	16	120	184	1000	1010	–	–	–	–	–
COc1ccc(-n2nc3c4ccccc4[nH]cc-3c2=O)cc1 [CGS9895, reference compound]	0.21	–	–	–	9.3	–	–	–	–	–
C#Cc1ccc2c(c1)C(c1ccccc1Cl)=NCC(=O)N2C [XLi352]	1.56	0.991	–	1.96	–	–	–	–	–	–
O=C1CN=C(c2ccccc2Cl)c2cc(Br)ccc2N1 [DM-II-72]	–	1.37	–	2.02	–	–	–	–	–	–
C#Cc1ccc2c(c1)C(=O)N1CCC1c1c(-c3ocnc3C(=O)OCC)ncn1-2 (stereo not shown) [RY-069]	–	–	–	–	–	692 nM	622	506	19	1000 nM
O=C(OCC(F)(F)F)c1ncn2c1C1CCCN1C(=O)c1cc(Br)ccc1-2 (stereo not shown) [JYI-10]	5000	368	–	12.3	23	–	–	–	–	–
O=C(OCC(F)(F)F)c1ncn2c1CN=C(c1ccccc1F)c1cc(Br)ccc1-2 [JYI-49]	1.87	2.38	–	6.7	3390	–	–	–	–	–
COc1ccc(-n2nc3c4ccc(OC)cc4[nH]cc-3c2=O)cc1 [PZII-029]	0.34	–	0.79	0.52	10	–	–	–	–	–

Compound	Ki (α1β3γ2 GABAA/BzR; read-out: Ki α1) [nM]	Ki (α2β3γ2 GABAA/BzR; read-out: Ki α2) [nM]	Ki (α3β3γ2 GABAA/BzR; read-out: Ki α3) [nM]	Ki (α5β3γ2 GABAA/BzR; read-out: Ki α5) [nM]	Ki (α6β3γ2 GABAA/BzR; read-out: Ki α6) [nM]	Ki (α1β3γ2 GABAA/BzR; Ki α1)	Ki (α2β3γ2 GABAA/BzR; Ki α2) [nM]	Ki (α3β3γ2 GABAA/BzR; Ki α3) [nM]	Ki (α5β3γ2 GABAA/BzR; Ki α5) [nM]	Ki (α6β3γ2 GABAA/BzR; Ki α6)
CCOC(=O)c1ncn2c1CN=C(c1ccccc1F)c1cc(Br)ccc1-2 [JYI-32]	3.07	4.96	–	2.92	52.2	–	–	–	–	–
Cc1nnc2n1-c1ccc(C#C[Si](C)(C)C)cc1C(c1ccccc1F)=NC2 [JYI-72]	48.5	18.5	–	11.5	–	–	–	–	–	–
Cc1nnc2n1-c1ccc(Br)cc1C(c1ccccc1)=NC2 [XLi268]	2.81	0.686	–	0.624	–	–	–	–	–	–
C#Cc1ccc2c(c1)C(c1ccccc1F)=N[C@@H](C)c1c(C(=O)OCC)ncn1-2 [SH-O53-S-CH3-2′F]	–	–	–	–	–	–	–	–	–	5000 nM
C=Cc1ccc2c(c1)C(=O)N1CCC[C@H]1c1c(C(=O)OCC(F)(F)F)ncn1-2 [JYI-12]	91	39	–	4.5	6.8	–	–	–	–	–
Cc1nnc2n1-c1ccc(Br)cc1C(c1ccccc1F)=NC2 [JYI-57]	0.076	0.076	0.131	0.036	–	–	–	–	–	–
CN1Cc2c(C(=O)OC(C)(C)C)ncn2-c2ccc(N3CCCC3)cc2C1=O [DM-139]	5.8	–	169	9.25	325	–	–	–	–	–
C#Cc1ccc2c(c1)C(c1ccccc1F)=NCc1nnc(C)n1-2 [JYI-70]	6.3	2.1	–	0.56	5000	–	–	–	–	–
O=C1CN=C(c2cccs2)c2cc(Br)ccc2N1 [JC184]	9.61	10.5	–	6.71	–	–	–	–	–	–
O=C1C2C=Nc3ccccc3C2=NN1c1ccc(Cl)cc1 (stereo not shown) [CGS9896, reference compound]	–	–	–	–	–	0.28 nM	–	–	–	181 nM
O=C(OCC(F)(F)F)c1ncn2c1[C@@H]1CCCN1C(=O)c1ccccc1-2 [JYI-14]	32	25	–	13	565	–	–	–	–	–
CC(C)(C)OC(=O)c1ncn2c1[C@@H]1CCCN1C(=O)c1cc(-c3cccs3)ccc1-2 [JYI-19]	2.18	205	–	34	12.7	–	–	–	–	–
CN1Cc2c(C(=O)OC(C)(C)C)ncn2-c2ccc(O)cc2C1=O [DM-239]	1.5	–	0.53	0.14	6.89	–	–	–	–	–
Cc1nnc2n1-c1ccc(Br)cc1C(c1ccccc1Cl)=NC2 [DM-II-90 (C17H12N4BrCl)]	–	1	0.63	0.37	5000	–	–	–	–	–
CCOC(=O)c1ncc2[nH]c3cc(OC)c(OC)cc3c2c1CC [MSR-I-032]	6.2	18.7	4	–	74.9	–	–	–	–	–
C#Cc1ccc2c(c1)C(c1ccccc1)=NCC(NC)=N2 [Hz148]	11	5000	–	256	5000	–	–	–	–	–
C#Cc1ccc2c(c1)C(=O)N1CCC[C@H]1c1c(C(=O)OCC(F)(F)F)ncn1-2 [JYI-15]	205	812	–	4.8	22	–	–	–	–	–
C#Cc1ccc2c(c1)C(c1cccs1)=NCC(=O)N2C [JC222]	86.7	45.1	–	17.6	–	–	–	–	–	–
CC(C)(C)OC(=O)c1cc2c(cn1)[nH]c1ccccc12 [SH-TSC-2]	–	0.0419	0.035	69.3	–	–	–	–	–	–

Compound	Ki (α1β3γ2 GABAA/BzR; read-out: Ki α1) [nM]	Ki (α2β3γ2 GABAA/BzR; read-out: Ki α2) [nM]	Ki (α3β3γ2 GABAA/BzR; read-out: Ki α3) [nM]	Ki (α5β3γ2 GABAA/BzR; read-out: Ki α5) [nM]	Ki (α6β3γ2 GABAA/BzR; read-out: Ki α6) [nM]	Ki (α1β3γ2 GABAA/BzR; Ki α1)	Ki (α2β3γ2 GABAA/BzR; Ki α2) [nM]	Ki (α3β3γ2 GABAA/BzR; Ki α3) [nM]	Ki (α5β3γ2 GABAA/BzR; Ki α5) [nM]	Ki (α6β3γ2 GABAA/BzR; Ki α6)
C#Cc1ccc2c(c1)C(c1cccs1)=NCC(=O)N2 [JC208]	22.4	18.9	–	5.04	–	–	–	–	–	–
O=C(O)c1ncn2c1CN=C(c1ccccc1)c1cc(Br)ccc1-2 [DM-III-01]	–	12	–	4.73	–	–	–	–	–	–
COc1ccc(-n2nc3c4cc(Cl)ccc4[nH]cc-3c2=O)cc1 [PZII-028]	0.2	–	0.2	0.32	1.9	–	–	–	–	–
C[Si](C)(C)C#Cc1ccc2c(c1)C(c1ccccc1F)=NCC(=O)N2 [JYI-55]	41.4	–	0.504	24.8	–	–	–	–	–	–
C#Cc1ccc2c(c1)C(c1ccccc1F)=NCC(=O)N2 [JYI-60 (C17H11N2OF)]	–	–	4.3	1.7	5000	–	–	–	–	–
COCc1ncn2c1CN(C)C(=O)c1cc(Cl)ccc1-2 [SH-TSC-1]	362	180	328	6.18	–	–	–	–	–	–
O=[N+]([O-])c1ccc2[nH]c3cnc([N+](=O)[O-])cc3c2c1 [EDC-I-071]	12.9	83.1	–	314	5000	–	–	–	–	–
O=C1CN=C(c2ccccc2F)c2cc(Br)ccc2N1 [JYI-42]	0.257	0.146	0.278	0.256	–	–	–	–	–	–
C#Cc1ccc2c(c1)C(c1ccccc1F)=NCc1c(C(=O)NC)ncn1-2 [HJ-I-037]	15.1	8.13	28.3	0.818	–	–	–	–	–	–
C#Cc1ccc2[nH]c3cnc(C(=O)OC(C)(C)C)cc3c2c1 [WY-TSC-4]	–	–	1.63	51	–	–	–	–	–	–
C[Si](C)(C)C#Cc1ccc2c(c1)C(=O)N1CCC[C@H]1c1c(C(=O)OCC(F)(F)F)ncn1-2 [JYI-11]	5000	5000	–	648	3.97	–	–	–	–	–
S=C=Nc1ccc2[nH]c3cnc(N=C=S)cc3c2c1 [EDC-I-093]	13.6	423	–	2910	5000	–	–	–	–	–
CN1CCN(C=C2N=C3CN=C(c4ccccc4)c4cc(Br)ccc4N3C2=O)CC1 [PS-1-35]	–	16	24.4	–	–	–	–	–	–	–
CCOc1cc2c(cn1)[nH]c1ccccc12 [3 EBC, 3-Ethoxy-beta-carboline]	–	–	28.2	826	–	–	–	–	–	1000 nM
C=Cc1ccc2c(c1)C(=O)N1CCC[C@H]1c1c(C(=O)OC(C)(C)C)ncn1-2 [JYI-04]	28.3	16	–	0.51	1.57	–	–	–	–	–
COc1ccc2c(c1)C(=O)N(C)Cc1c(C(=O)OC(C)(C)C)ncn1-2 [DM-215]	6.74	–	7.42	0.293	8.28	–	–	–	–	–
CN(C)C=C1N=C2CN=C(c3ccccc3)c3cc(Br)ccc3N2C1=O [PS-1-34B]	–	4.2	3.93	–	–	–	–	–	–	–
C#Cc1ccc2c(c1)C(c1ccccc1F)=NCc1c(C(=O)OCC(F)(F)F)ncn1-2 [JYI-59 (C22H13N3O2F4)]	–	2.6	–	–	5000	–	–	–	–	–
